{
  "source": "paper PMC5045374",
  "about": "(Oncotarget, 2016)",
  "key": {"[1]": {"system": "neuroblastoma tumor growth", "details": "orthotopic xenograft tumor growth and TH-ALKF1174L/TH-MYCN mouse model; cited from earlier work"}, "[2]": {"system": "CLB-PE (ALK-WT, non-ALK addicted) neuroblastoma cells", "assay": "Proliferation assay (resazurin cell viability), CLB-PE", "assay_type": "cell-based, human", "details": "72 hours", "experimental": "(§1) Cells were seeded at 15,000 per well with serial dilutions of the indicated inhibitors. After 72 hours cell viability was assessed by resazurin (Sigma, Sweden). IC50 values were calculated with GraphPad Prism 6.0 by fitting data to a log (inhibitor concentration) vs. normalized response (variable slope) equation. Each experiment was performed in duplicate and repeated at least three times."}, "CLB-BAR cells": {"system": "CLB-BAR cells", "assay": "Xenograft neuroblastoma model in vivo", "design": "species or system BalbC/NUDE mice", "source_text": "In the first investigation mice (n=3) were employed and in the second investigation mice (n=5) were employed. […] In the second investigation where 5 mice were employed a subset of mice (n=2) were released from treatment after 14 days, for a further 8 days (blue curve). […] C. […] Data are means +/− SE from 8 tumours, p values indicated; Student's t test.\nFemale Balbc/nude mice (Charles River, Germany) at 5-6 weeks age were maintained in a pathogen-free environment. For xenografts, 2.5 million CLB-BAR cells (MYCN amplified, ALK (Δ4-11) amplified) were injected subcutaneously. Once tumor volume achieved about 50mm^3, drug was given at 50 mg/kg body weight, by oral gavage, once daily, continuously for 14 days. Mice were grouped by tumor volume randomly. Tumor volume was calculated with the following equation: V=0.5236×L×W^2 (V=volume, L=longest, W=width).\nMice were sacrificed and tumors were collected. Tumors were fixed in 4% PFA, followed by 15% and 30% sucrose in PBS. Tumors were embedded in OCT compound (VWR chemicals) and frozen at −80°C. […] Secondary antibodies (Cell Signaling Tech., Danver, MA) were applied for 2 hours at room temperature. Impact DAB (Vector Laboratories, SK 4105) was employed for staining followed by hematoxylin cross-staining (Sigma-Aldrich). After mounting sections, images were taken using an Axio zoom V16 stereo microscope (Zeiss)."}, "ALK-positive NSCLC": {"system": "ALK-positive NSCLC", "details": "cited from earlier work"}, "ALK mutants": {"system": "ALK mutants", "assay": "Neurite outgrowth assay in PC12 cells, ALK mutants", "assay_type": "cell-based, human", "experimental": "PC12 cells (2 x10^6) co-transfected, in 100 μl of Ingenio electroporation solution (Minus Bio LCC), with pEGFPN1 (Clonetech) (0.5 ng) and ALK-mutant (0.75 ng) or ALK-wt (0.75 ng) as indicated were seeded sparingly into 24-well plates. ALK-wild type was stimulated with 1 μg/ml mAb31. After 48 hours post transfection, the fraction of GFP-positive and neurite carrying cells versus GFP-positive cells were analyzed under a Zeiss Axiovert 40 CFL microscope. A cell was considered as neurite-carrying if it had neurite(s) that reached at least twice the length of the diameter of a normal cell body. The experiments were performed at least three times in triplicates."}, "[3]": {"details": "inferred from CNS responses in NSCLC patients; cited from earlier work"}, "[4]": {"system": "CLB-GE (ALK-F1174V, ALK addicted) neuroblastoma cells", "assay": "Proliferation assay (resazurin cell viability), CLB-GE", "assay_type": "cell-based", "details": "Homo sapiens, 72 hours, read-out: IC50 (cell growth)", "experimental": "as §1"}, "[5]": {"system": "IMR32 (ALK-WT, non-ALK addicted) neuroblastoma cells", "assay": "Proliferation assay (resazurin cell viability), IMR32", "assay_type": "cell-based, human", "details": "IMR32, 72 hours", "experimental": "as §1"}, "[6]": {"system": "CLB-BAR (ALK-Δ4-11, ALK addicted) neuroblastoma cells", "assay": "Proliferation assay (resazurin cell viability), CLB-BAR", "assay_type": "cell-based", "details": "Homo sapiens, 72 hours, read-out: IC50 (cell growth)", "experimental": "as §1"}, "[7]": {"details": "immunoblotting, vs control group"}},
  "data": [
    {"smiles": "C[C@@H](Oc1cc(-c2cnn(C3CCNCC3)c2)cnc1N)c1c(Cl)ccc(F)c1Cl", "note": "[crizotinib]", "values": [
      {"measurement": "efficacy as a single agent treatment", "setting": "[1]", "result": "limited efficacy"}
    ]},
    {"smiles": "COc1cc(N2CCC(N3CCN(C)CC3)CC2)ccc1Nc1ncc(Cl)c(Nc2ccccc2P(C)(C)=O)n1", "note": "[brigatinib]", "values": [
      {"measurement": "inhibition of cell growth", "setting": "[2]", "result": "Neither brigatinib nor crizotinib was able to inhibit growth"},
      {"measurement": "tumor weight", "setting": "CLB-BAR cells; 50 mg/kg once daily oral gavage, 14 days, vs controls, p=0.01", "result": "significantly reduced"},
      {"measurement": "tumor volume / tumor growth", "setting": "CLB-BAR cells; 50 mg/kg once daily oral gavage, 14 days, vs vehicle, p=0.0004", "result": "considerably inhibits proliferation of tumor growth"},
      {"measurement": "side effect in vivo", "setting": "CLB-BAR cells; 50 mg/kg once daily, 14 days", "result": "no obvious side effect"},
      {"measurement": "body weight of mice", "setting": "CLB-BAR cells; 50 mg/kg once daily, 14 days, p=0.9", "result": "did not show any variation"},
      {"measurement": "MYCN protein levels in tumor material", "setting": "CLB-BAR cells; [7]", "result": "decreased protein levels"},
      {"measurement": "phospho-ALK levels in tumor material", "setting": "CLB-BAR cells; [7]", "result": "decreased phospho-ALK levels"},
      {"measurement": "phosphorylated ERK5 and AKT in tumor material", "setting": "CLB-BAR cells; [7]", "result": "reduced phosphorylation"},
      {"measurement": "total ALK protein levels in tumor material", "setting": "CLB-BAR cells; [7]", "result": "No obvious change"},
      {"measurement": "tumor volume/growth after discontinuation of treatment", "setting": "CLB-BAR cells; treatment discontinued after 14 days, for 8 days, n=2", "result": "increase in tumor volume/growth"},
      {"measurement": "Ki-67 proliferation marker in excised tumor", "setting": "CLB-BAR cells; vs controls, p=0.0005", "result": "significantly reduced proliferation"},
      {"measurement": "patients with non-measureable CNS lesions with disappearance of all lesions", "setting": "ALK-positive NSCLC; 8/26 patients", "result": 31, "unit": "%"},
      {"measurement": "patients responding to treatment", "setting": "ALK-positive NSCLC; crizotinib refractory ALK-positive NSCLC patients", "result": "about 72%"},
      {"measurement": "response in patients with baseline CNS metastases", "setting": "ALK-positive NSCLC; radiological review, 6/12 patients", "result": 50, "unit": "%"},
      {"measurement": "block of neurite outgrowth compared with crizotinib", "setting": "ALK mutants; ALK-G1269A, ALK-R1275 and ALK-R1192P, brigatinib 15 and 30 nM vs crizotinib 250 nM", "result": "more efficiently than crizotinib"},
      {"measurement": "neurite outgrowth of all tested ALK mutants", "setting": "ALK mutants; PC12 cells, 48 hours", "result": "could abrogate neurite outgrowth"},
      {"measurement": "blood-brain barrier penetration", "setting": "[3]", "result": "able to penetrate the blood-brain barrier"},
      {"measurement": "IC50", "setting": "[4]", "result": "100 ± 17.5", "unit": "nM"},
      {"measurement": "inhibition of cell growth", "setting": "[5]", "result": "Neither brigatinib nor crizotinib was able to inhibit growth"},
      {"measurement": "IC50", "setting": "[6]", "result": "75.3 ± 8.89", "unit": "nM"}
    ]}
  ]
}
